Reference: patent US10597367B2, “Metabotropic glutamate receptor negative allosteric modulators (NAMs) and uses thereof” (Sanford Burnham Prebys Medical Discovery Institute, priority 2014, dated 2020)

Assays:
[1] = Microsomal stability in vitro assay; format: in vitro ADME; details: pooled rat liver microsomes, 4 μM compound, NADPH
Experimental: Pooled rat liver microsomes (BD Biosciences, #452701) were preincubated with test compounds at 37.5° C. for 5 min in the absence of NADPH. The reaction was initiated by addition of NADPH and incubated under the same conditions. The final incubation concentrations were 4 μM test compound, 2 mM NADPH, and 1 mg/mL (total protein) liver microsomes in phosphate-buffered saline (PBS) at pH 7.4. One aliquot (100 μL) of the incubation mixture was withdrawn at 15 min time points and combined immediately with 100 μL of ACN/MeOH. After mixing, the sample was centrifuged at approximately 13000 rpm for 12 min. The supernatant was filtered and transferred into an autosampler vial and the amount of test compound was quantified using a Shimadzu LCMS 2010EV mass spectrometer. The change of the AUC (area under the curve) of the parent compound as a function of time was used as a measure of microsomal stability. Test compounds were run in duplicate with a positive control.

[2] = Plasma stability in vitro assay; format: in vitro ADME; details: heparinized rat plasma, 100 μM, 37.5° C.
Experimental: A 20 μL aliquot of a 10 mM solution in DMSO of the test compound was added to 2.0 mL of heparinized rat plasma (Lampire, P1-150N) to obtain a 100 μM final solution. The mixture was incubated for 1 h at 37.5° C. Aliquots of 100 μL were taken at 15 min intervals and diluted with 100 μL of MeOH/ACN. After mixing, the sample was centrifuged at approximately 13000 rpm for 12 min. The supernatant was filtered and transferred into an autosampler vial and the amount of test compound was quantified using the Shimadzu LCMS-2010EV system. The change of the AUC of the parent compound in function of time was used as a measure of plasma stability.

[3] = target: mGlu2 receptor (Rattus norvegicus (Rat), UniProt P31421); test: mGlu2 in vitro GIRK thallium flux assay; format: cell-based; details: read-out: mGlu2 EC50 (μM) (60 min); NAM; test compound incubated 60 min before EC80 glutamate; HEK-293 GIRK cells
mGlu2 receptor, sequence (P31421 19-872): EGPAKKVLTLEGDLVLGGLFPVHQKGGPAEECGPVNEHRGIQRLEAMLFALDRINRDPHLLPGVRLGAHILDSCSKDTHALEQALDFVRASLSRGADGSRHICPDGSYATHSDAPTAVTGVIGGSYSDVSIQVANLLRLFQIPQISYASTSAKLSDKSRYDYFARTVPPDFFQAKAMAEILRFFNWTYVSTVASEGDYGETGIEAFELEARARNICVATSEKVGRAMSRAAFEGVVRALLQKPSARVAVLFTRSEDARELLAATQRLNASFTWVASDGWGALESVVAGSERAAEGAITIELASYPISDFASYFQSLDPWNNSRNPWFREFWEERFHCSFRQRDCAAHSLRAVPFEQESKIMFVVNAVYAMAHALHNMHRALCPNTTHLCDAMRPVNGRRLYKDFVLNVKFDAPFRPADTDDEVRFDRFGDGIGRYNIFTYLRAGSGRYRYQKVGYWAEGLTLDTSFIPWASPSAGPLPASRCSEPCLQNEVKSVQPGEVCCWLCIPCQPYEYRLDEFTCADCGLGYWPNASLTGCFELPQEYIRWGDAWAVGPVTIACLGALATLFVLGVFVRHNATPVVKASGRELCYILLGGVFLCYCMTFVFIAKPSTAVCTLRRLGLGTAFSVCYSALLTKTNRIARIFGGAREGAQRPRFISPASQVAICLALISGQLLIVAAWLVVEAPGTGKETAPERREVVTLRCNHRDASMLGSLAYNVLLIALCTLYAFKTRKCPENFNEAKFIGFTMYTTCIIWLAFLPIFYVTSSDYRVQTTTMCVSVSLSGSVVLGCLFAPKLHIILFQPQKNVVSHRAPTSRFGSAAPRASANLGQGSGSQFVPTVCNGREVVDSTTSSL
Experimental: All cell culture reagents were purchased from Invitrogen Corp. (Carlsbad, Calif.) unless otherwise noted. Compound activity at the group II (mGlu2 and mGlu3) mGlus was assessed using thallium flux through GIRK channels. Briefly, cells were plated into 384-well, black-walled, clear-bottomed poly-D-lysine-coated plates at a density of 15,000 cells/20 μL/well in DMEM containing 10% dialyzed FBS, 20 mM HEPES, and 100 units/mL penicillin/streptomycin (assay media). Plated cells were incubated overnight at 37° C. in the presence of 5% CO2. […] Cells were incubated for 1 h at room temperature, and the dye exchanged to assay buffer using an ELX405, leaving 20 μL/well. Test compounds were diluted to 2 times their final desired concentration in assay buffer (0.3% DMSO final concentration). […] Cell plates and compound plates were loaded onto a kinetic imaging plate reader (FDSS 6000 or 7000; Hamamatsu Corporation, Bridgewater, N.J.). Appropriate baseline readings were taken (10 images at 1 Hz; excitation, 470±20 nm; emission, 540±30 nm) and test compounds were added in a 20 μL volume and incubated for either 2.5 min or 60 min as indicated before the addition of 10 μL of thallium buffer with or without agonist. After the addition of agonist, data were collected for approximately an additional 2.5 min. Data were analyzed using Excel (Microsoft Corp, Redmond, Wash.). The slope of the fluorescence increase beginning 5 s after thallium/agonist addition and ending 15 s after thallium/agonist addition was calculated, corrected to vehicle and maximal agonist control slope values, and plotted in using either XLfit (ID Business Solutions Ltd) or Prism software (GraphPad Software, San Diego, Calif.) to generate concentration-response curves. Potencies were calculated from fits using a four-point parameter logistic equation. For concentration-response curve experiments, compounds were serially diluted 1:3 into 10 point concentration response curves and were transferred to daughter plates using an Echo acoustic plate reformatter (Labcyte, Sunnyvale, Calif.). Test compounds were applied and followed by EC80 concentrations of glutamate.

[4] = test system: Male Wistar rats; test: Forced Swim Test (FST); format: in vivo; details: rat, FIG. 1
Experimental: Male Wistar rats (Charles River, Hollister, Calif.), weighing 175-225 g (Charles River, Portage, Ind.) used for the forced swim test study were housed in pairs with food and water available ad libitum, except during testing, in a temperature and humidity controlled vivarium (21° C.). Rats were maintained on a 12-hour reverse light-dark cycle with lights on at 6 pm. All experimental procedures occurred during the dark cycle, were approved by the Institutional Animal Care and Use Committee of the Scripps Research Institute, and were in accordance with the Association for the Assessment and Accreditation of Laboratory Animal Care (AAALAC) guidelines. […]
After the habituation swim and 24 hours prior to the test swim, rats were administered one of three doses of a mGlu2/3 NAM, with doses and pretreatment time based on maximal brain penetration as determined by PK studies for each compound. Blood and brain tissue were collected immediately after the FST and the PK properties of each compound were analyzed together with FST behavior. […] Twenty-four hours after their first exposure, the animals were again placed in the swim apparatus for 5 min, and behaviors were monitored from above by video camera for subsequent analysis. The rater of the behavioral patterns was blind with respect to the experimental conditions being scored. […]

Row | Microsomal Stability, Percent Remaining @ 1 hour [1] | Plasma Stability, Percent Remaining @ 1 hour [2] | SMILES | EC50 [3] | antidepressant activity in the Forced Swim Test (immobility, swimming) [4]
1 | 100% | 100% | O=C(O)c1cc(-c2cccc(-c3nc(-c4ccccc4)cc(C(F)(F)F)n3)c2)ccc1F [Example 86, 4-Fluoro-3′-(4-phenyl-6-(trifluoromethyl)pyrimidin-2-yl)biphenyl-3-carboxylic Acid] | – | –
2 | – | – | Cc1cc2c(cc1C(F)(F)F)NC(=O)CC(c1cccc(Oc3cccc(C(F)(F)F)c3)c1)N2 (single isomer, unassigned) [Example 172B, 7-Methyl-8-(trifluoromethyl)-4-(3-(3-(trifluoromethyl)phenoxy)phenyl)-4,5-dihydro-1H-benzo[b][1,4]diazepin-2(3H)-one] | > 10 µM | –
3 | 83% | 83% | O=C(O)c1cc(-c2cccc(-c3nc(-c4ccsc4)cc(C(F)(F)F)n3)c2)ccc1F [Example 122, 4-Fluoro-3′-(4-(thiophen-3-yl)-6-(trifluoromethyl)pyrimidin-2-yl)-[1,1′-biphenyl]-3-carboxylic Acid] | – | –
4 | 68% | 66% | Cc1cc2c(cc1C(F)(F)F)NC(=O)CC(c1cccc(S(=O)(=O)c3ncccn3)c1)=N2 [Example 137, 7-Methyl-4-(3-(pyrimidin-2-ylsulfonyl)phenyl)-8-(trifluoromethyl)-1H-benzo[b][1,4]diazepin-2(3H)-one] | – | –
5 | – | – | O=C1CC(c2ccnc(Br)c2)=Nc2ccc(C(F)(F)F)cc2N1 [Example 191, 4-(2-Bromopyridin-4-yl)-8-(trifluoromethyl)-1,3-dihydro-2H-benzo[b][1,4]diazepin-2-one] | – | antidepressant activity by decreasing immobility and increasing swimming
6 | 95% | 100% | O=C(O)c1cc(F)cc(-c2cccc(-c3nc(-c4ccc(C(F)(F)F)nc4)cc(C(F)(F)F)n3)c2)c1 [Example 76, 5-Fluoro-3′-(4-(trifluoromethyl)-6-(6-(trifluoromethyl)pyridin-3-yl)pyrimidin-2-yl)biphenyl-3-carboxylic Acid] | – | –
7 | – | – | Cc1cc2c(cc1C(F)(F)F)NC(=O)CC(c1cccc(Oc3cccc(Br)c3)c1)N2 (single isomer, unassigned) [Example 173B, 4-(3-(3-Bromophenoxy)phenyl)-7-methyl-8-(trifluoromethyl)-4,5-dihydro-1H-benzo[b][1,4]diazepin-2(3H)-one] | > 10 µM | –
8 | 2% | 65% | O=C(O)c1cc(-c2cccc(-c3nsc(-c4ccccc4)n3)c2)ccc1F [Example 38, 4-Fluoro-3′-(5-phenyl-1,2,4-thiadiazol-3-yl)biphenyl-3-carboxylic Acid] | – | –
9 | 30% | 100% | O=C1CC(c2cccc(-c3cccnc3)c2)=Nc2ccc(Br)cc2N1 [Example 179, 8-Bromo-4-(3-(pyridin-3-yl)phenyl)-1,3-dihydro-2H-benzo[b][1,4]diazepin-2-one] | – | –
10 | 4% | 98% | O=C(O)c1cc(F)cc(-c2cccc(-c3csc(-c4ccccc4)n3)c2)c1 [Example 9, 5-Fluoro-3′-(2-phenylthiazol-4-yl)biphenyl-3-carboxylic Acid] | – | –
11 | 3% | 93% | O=C(O)c1cc(-c2cccc(-c3csc(-c4ccccc4)n3)c2)ccc1F [Example 1, 4-Fluoro-3′-(2-phenylthiazol-4-yl)biphenyl-3-carboxylic Acid] | – | –
12 | 66% | 93% | O=C(O)c1ccc(F)c(-c2cccc(-c3nc(-c4ccoc4)cc(C(F)(F)F)n3)c2)c1 [Example 114, 6-Fluoro-3′-(4-(furan-3-yl)-6-(trifluoromethyl)pyrimidin-2-yl)biphenyl-3-carboxylic Acid] | – | –
13 | 82% | 100% | O=C(O)c1cc(F)cc(-c2cccc(-c3nc(-c4ccco4)cc(C(F)(F)F)n3)c2)c1 [Example 89, 5-Fluoro-3′-(4-(furan-2-yl)-6-(trifluoromethyl)pyrimidin-2-yl)biphenyl-3-carboxylic Acid] | – | –
14 | 90% | 99% | Cc1cc2c(cc1C(F)(F)F)NC(=O)CC(c1cccc(Sc3ncccn3)c1)=N2 [Example 136, 7-Methyl-4-(3-(pyrimidin-2-ylthio)phenyl)-8-(trifluoromethyl)-1H-benzo[b][1,4]diazepin-2(3H)-one] | – | –
15 | 82% | 86% | O=C(O)c1ccc(F)c(-c2cccc(-c3nc(-c4ccc(C(F)(F)F)nc4)cc(C(F)(F)F)n3)c2)c1 [Example 79, 6-Fluoro-3′-(4-(trifluoromethyl)-6-(6-(trifluoromethyl)pyridin-3-yl)pyrimidin-2-yl)biphenyl-3-carboxylic Acid] | – | –
16 | 66% | 95% | O=C(O)c1cc(F)cc(-c2cccc(-c3nsc(-c4ccoc4)n3)c2)c1 [Example 43, 5-Fluoro-3′-(5-(furan-3-yl)-1,2,4-thiadiazol-3-yl)biphenyl-3-carboxylic Acid] | – | –
17 | 97% | 100% | N#Cc1cc(C2=Nc3ccc(C(F)(F)F)cc3NC(=O)C2)ccn1 [Example 184, 4-(2-Oxo-8-(trifluoromethyl)-2,3-dihydro-1H-benzo[b][1,4]diazepin-4-yl)picolinonitrile] | – | –
18 | 92% | 97% | COc1ccc(-c2cc(C(F)(F)F)nc(-c3cccc(-c4ccc(F)c(C(=O)O)c4)c3)n2)cc1 [Example 87, 4-Fluoro-3′-(4-(4-methoxyphenyl)-6-(trifluoromethyl)pyrimidin-2-yl)biphenyl-3-carboxylic Acid] | – | –
